Laboratory results from patent publication US10428026B2, “Pyridinone dicarboxamide for use as bromodomain inhibitors” (GlaxoSmithKline Intellectual Property (No.2) Limited, priority 2015, dated 2019).
Like-named read-outs stand apart in the source and are kept apart here.

What was measured:
[1] = target: T1, BRD4 BD1 (Homo sapiens, UniProt O60885, Y390A); assay: BRD4 BD1 TR-FRET competition assay; assay type: binding; conditions: mean of n determinations; read-out: mean pIC50 in the BRD4 BD1 TR-FRET assay (converted)
T1 construct: BRD4 (1-477) (Y97A) and (Y390A); made in house; host or cells: E. coli (pET15b vector)

[2] = target: T2, BRD4 BD2 (Homo sapiens, UniProt O60885, Y97A); assay: BRD4 BD2 TR-FRET competition assay; assay type: binding; conditions: for fold selective for BRD4 BD2 over BRD4 BD1: derived from the log unit selectivity; for selectivity for BRD4 BD2 over BRD4 BD1 (BRD4 BD2 pIC50 - BRD4 BD1 pIC50): in at least one of the TR-FRET assays
T2 construct: BRD4 (1-477) (Y97A) and (Y390A); made in house; host or cells: E. coli (pET15b vector)

[3] = system: BET family (BRD2, BRD3, BRD4 and BRDT) mutant tandem bromodomain proteins; assay: Fluorescence Polarisation binding of Reference Compound X to single and double mutant tandem BET proteins; design: species or system Human
Experimental: The competition of the compounds of formula (I) with Reference Compound X for binding to the BET family (BRD2, BRD3, BRD4 and BRDT) was assessed using protein truncates spanning both bromodomain 1 (BD1) and bromodomain 2 (BD2). In order to monitor differential binding to either BD1 or BD2, single residue mutations of key tyrosines to alanine were made in the acetyl lysine binding pockets. To validate this approach, a double residue mutant tandem domain protein was produced for each of the BET family members. Utilising a Fluorescence Polarisation approach, binding affinities for each of the single and double mutants for Reference Compound X were determined. […] The affinities of the single mutated bromdomain tandem proteins for Reference Compound X were equi-potent with the corresponding non-mutated BET protein. […] In the TR-FRET competition assay, Reference Compound X is used at a concentration that is equivalent to the Kd for the non-mutated bromodomain, which ensures that no binding at the mutated bromodomain is detected. […]

[4] = mean of n determinations, read-out: mean pIC50 in the BRD4 BD2 TR-FRET assay (converted)

Question: With `CNC(=O)c1cc(C(=O)N[C@H]2C[C@@H]2C)cn(Cc2ccccc2)c1=O` (single isomer, unassigned) [Example 102] as the compound, how does the IC50 [1] read?
Answer: 7.94 µM

Question: What about the “fold selective for BRD4 BD2 over BRD4 BD1” value [2] of the same compound?
Answer: at least 100 fold

Question: What about the “selectivity for BRD4 BD2 over BRD4 BD1 (BRD4 BD2 pIC50 - BRD4 BD1 pIC50)” value [2] of the same compound?
Answer: 2.5 log unit

Question: What about the IC50 [2, 4] of the same compound?
Answer: 0.0251 µM

Question: `CNC(=O)c1cc(C(=O)N[C@H]2C[C@@H]2C)cn(Cc2cccc(OCCO)c2)c1=O` [Example 153, 1-(3-(2-Hydroxyethoxy)benzyl)-N3-methyl-N5-((1S,2S)-2-methylcyclopropyl)-2-oxo-1,2-dihydropyridine-3,5-dicarboxamide] was tested. Which IC50 [1] did it give?
Answer: 31.6 µM

Question: And the “fold selective for BRD4 BD2 over BRD4 BD1” value [2]?
Answer: at least 100 fold

Question: And the “selectivity for BRD4 BD2 over BRD4 BD1 (BRD4 BD2 pIC50 - BRD4 BD1 pIC50)” value [2]?
Answer: 2.7 log unit

Question: And the IC50 [2, 4]?
Answer: 0.0631 µM

Question: How did the IC50 ([2]; BRD4 BD2 TR-FRET, read-out: pIC50 in the BRD4 BD2 assay (converted)) turn out when `CNC(=O)c1cc(C(=O)N[C@H]2C[C@@H]2C)cn(Cc2ccc(C(=O)O)cc2)c1=O` [Example 339, 4-((3-(Methylcarbamoyl)-5-(((1S,2S)-2-methylcyclopropyl)carbamoyl)-2-oxopyridin-1(2H)-yl)methyl)benzoic acid] was run?
Answer: 1 to 100 µM

Question: Which “fold reduction in Kd (affinity) of double mutant tandem proteins for Reference Compound X” value ([3]; double residue mutant versus non mutated, wild type tandem BET proteins) does the source give for `COc1ccc2c(c1)C(c1ccc(Cl)cc1)=N[C@@H](CC(=O)NCCCCCNC(=O)CCCCCC1(C)/C(=C/C=C/C=C/C3=[N+](CCCCS(=O)(=O)O)c4ccc(S(=O)(=O)O)cc4C3(C)C)N(CCCCS(=O)(=O)[O-])c3ccc(S(=O)(=O)O)cc31)c1nnc(C)n1-2` (some centres unmarked) [Reference Compound X] here?
Answer: > 1000 fold

Question: What about the “fold change of Kd of the interaction between the mutated bromodomain and Reference Compound X” value ([3]; single mutations of Tyrosine to Alanine) of the same compound?
Answer: > 1000 fold
